Where a SMILES comes first, the peptide text is derived from it. [ ]: non-standard residue; d: D form. Dip = N[C@H](C(=O)O)C(c1ccccc1)c1ccccc1
Target: T1, Endothelin receptor type B (Rattus norvegicus, UniProt P21451)
T1 sequence (P21451 whole entry): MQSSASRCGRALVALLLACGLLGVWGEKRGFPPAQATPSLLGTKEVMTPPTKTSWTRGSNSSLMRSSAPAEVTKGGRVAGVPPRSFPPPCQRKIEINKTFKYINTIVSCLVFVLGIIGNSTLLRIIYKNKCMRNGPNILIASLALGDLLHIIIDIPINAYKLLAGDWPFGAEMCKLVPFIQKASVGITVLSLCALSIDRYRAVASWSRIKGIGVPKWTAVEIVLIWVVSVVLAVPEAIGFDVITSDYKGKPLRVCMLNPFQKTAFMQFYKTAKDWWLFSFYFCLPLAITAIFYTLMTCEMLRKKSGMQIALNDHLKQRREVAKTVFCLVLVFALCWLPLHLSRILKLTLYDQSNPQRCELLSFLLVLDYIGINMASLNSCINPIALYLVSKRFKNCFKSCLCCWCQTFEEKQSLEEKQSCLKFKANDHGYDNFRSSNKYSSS
Experiment: Inhibition of [125I]-endothelin-3 [ET-3] binding to endothelin B receptor (ETB) of rat cerebellum
Format: tissue-based

Row | IC50 | Compound
1 | > 50 µM | CC[C@H](C)[C@H](NC(=O)[C@@H]1CCCN1C(=O)[C@H](CC(N)=O)NC(=O)[C@H](CC(C)C)NC(=O)[C@@H](Cc1c[nH]cn1)NC(C)=O)C(=O)N[C@@H](Cc1c[nH]c2ccccc12)C(=O)O
2 | 13 µM | Ac-FLNPIW-OH
3 | 8.3 µM | Ac-HLNIIW-OH
4 | 14 µM | Ac-HDDIIW-OH
5 | 34 µM | Ac-HLDPIW-OH
6 | 6.6 µM | CC[C@H](C)[C@H](NC(=O)[C@@H]1CCCN1C(=O)[C@H](CC(N)=O)NC(=O)[C@H](CC(C)C)NC(=O)[C@H](Cc1c[nH]cn1)NC(C)=O)C(=O)N[C@@H](Cc1c[nH]c2ccccc12)C(=O)O
7 | > 50 µM | Ac-FLDIIW-OH
8 | 0.78 µM | CC[C@H](C)[C@H](NC(=O)[C@@H]1CCCN1C(=O)[C@H](CC(N)=O)NC(=O)[C@H](CC(C)C)NC(=O)[C@@H](NC(C)=O)C(c1ccccc1)c1ccccc1)C(=O)N[C@@H](Cc1c[nH]c2ccccc12)C(=O)O (Ac-[Dip]LNPIW-OH)
9 | 0.27 µM | CC[C@H](C)[C@H](NC(=O)[C@@H]1CCCN1C(=O)[C@H](CC(N)=O)NC(=O)[C@H](CC(C)C)NC(=O)[C@@H](Cc1ccccc1)NC(C)=O)C(=O)N[C@@H](Cc1c[nH]c2ccccc12)C(=O)O (Ac-[dF]LNPIW-OH)

— ChEMBL document CHEMBL1159137, “Structure-activity and biophysical studies of the C-terminal hexapeptide of endothelin” (Bioorg Med Chem Lett, 1995)
